In test [1] the test system is CCK-producing cell strain STC-1. Put plainly: Function to promote secretion of CCK from STC-1 cells. Format: cell-based, mouse. To be noted: incubation 37° C. for 60 minutes, CCK in supernatant by Enzyme immuno assay, vs Hepes B buffer control, FIG. 1. As to the method: A CCK-producing cell strain STC-1 derived from the mouse small intestine was cultured in a Dulbecco's modified Eagle's medium supplemented with 10% FBS at 37° C. in the presence of 5% CO2. The STC-1 cells were cultured in a 48-well plate for 2 to 3 days until the cells reached a subconfluent state. Prior to the addition of each of the samples, the wells were washed with a Hepes B buffer (140 mM NaCl, 4.5 mM KCl, 20 mM Hepes, 1.2 mM CaCl2, 1.2 mM MgCl2, 10 mM D-glucose, 0.1% BSA, pH 7.4), […] of a sample solution obtained by dissolving each of the samples in the same buffer were added to the wells, and incubation was performed at 37° C. for 60 minutes. γ-Glu-Cys-Gly (Sigma-Aldrich Japan K.K.), γ-Glu-Val-Gly, and cinacalcet were used as the samples. Further, the Hepes B buffer was used as a control. After supernatant collection, the cells were precipitated by centrifugation (800×g, 5 minutes, 4° C.), and 80 μl of the supernatant were collected and cryopreserved.
After the supernatant had been pretreated with an OASIS cartridge (C18), the concentration of CCK in the supernatant was measured with an Enzyme immuno assay kit (Phoenix Pharmaceuticals).

Test [2] relates to GLP-1-producing cell strain GLUTag. In words: Function to promote secretion of GLP-1 from GLUTag cells. Format: cell-based, mouse. The note with it: incubation 37° C. for 60 minutes, GLP-1 in supernatant by Enzyme immuno assay, vs Hepes B buffer control, FIGS. 2 and 3. As to the method: A GLP-1-producing cell strain GLUTag derived from the mouse large intestine was cultured in a Dulbecco's modified Eagle's medium supplemented with 10% FBS at 37° C. in the presence of 5% CO2. The GLUTag cells were cultured in a 48-well plate for 2 to 3 days until the cells reached a subconfluent state. Prior to the addition of each of samples, the wells were washed with a Hepes B buffer (140 mM NaCl, 4.5 mM KCl, 20 mM Hepes, 1.2 mM CaCl2, 1.2 mM MgCl2, 10 mM D-glucose, 0.1% BSA, pH 7.4), 80 μl of a sample solution obtained by dissolving each of the samples in the same buffer were added to the wells, and incubation was performed at 37° C. for 60 minutes. γ-Glu-Cys-Gly and cinacalcet were used as the samples. Further, the Hepes B buffer was used as a control. After supernatant collection, the cells were precipitated by centrifugation (800×g, 5 minutes, 4° C.), and 70 μl of the supernatant were collected and cryopreserved. The concentration of GLP-1 in the supernatant was measured with a commercially available Enzyme immuno assay kit (Yanaihara Institute Inc.).
In the same manner as in Example 2, a function to promote the secretion of GLP-1 was examined using a GLP-1-producing cell strain GLUTag. γ-Glu-Cys and protamine were used as samples.

A further test relates to calcium receptor. The note with it: shown in WO 2007/055388, WO 2007/055393, WO 2008/139945-7; J. Biol. Chem. 2006; cited from earlier work.
The subject of test [3] is male SD rats. In words: GLP-1 secretion test in rats (ligated ileal loop). Format: in vivo. The note with it: rat, 20 mg/2 mL deionized water into ligated ileum loop, ileal mesenteric vein blood 30-120 minutes, compared to water administration group; FIG. 4. As to the method:
After male SD rats (8-week-old) had been preliminarily fed, fasted overnight, and subjected to celiotomy under ketamine/xylazine anesthesia. GLP-1-producing cells are mainly distributed in an ileal site. Thus, after a ligated ileal loop (30 cm) had been prepared, a catheter was placed into the ileal mesenteric vein, and blood was collected from the catheter at the time of 0 minute (0 time). A sample (2 mL of deionized water, 20 mg of γ-Glu-Cys/2 mL of deionized water) was administered into the ligated ileum loop, blood was collected at 30, 60, 90, and 120 minutes after administration, respectively, and the plasma GLP-1 concentration was measured with an Enzyme immuno assay kit (manufactured by Yanaihara Institute Inc.).

The test system of test [4] is male SD rats. Put plainly: Oral glucose tolerance test in rats. Type of test: in vivo. The note with it: rat, oral 160 mg/kg with glucose 2 g/kg, at 15 and 30 minutes after glucose administration, compared to glucose solution alone; FIG. 5. The protocol: After male SD rats (7-week-old) had been preliminarily fed (for 3 to 4 days), and fasted overnight, they were subjected to an oral glucose tolerance test. Tail vein blood before specimen administration was collected, and a sample [glucose solution alone (2 g/kg weight)/glucose solution comprising γ-Glu-Cys (160 mg/kg weight)] was orally administered with a feeding tube. After sample administration, tail vein blood was collected at 15, 30, 60, 90, and 120 minutes, and the plasma glucose concentration was measured with a commercially available kit (manufactured by Wako Pure Chemical Industries, Ltd.).

*1 amine or outer side, *2 acyl side, *3 side chain or, on linkers, in order; H or OH if unused. Where no end group is shown, it is not given here. [ ]: non-standard residue; d: D form. γGlu = O=C(O)[C@H](CCC(=O)[*:2])N[*:1]; Met(O) = CS(=O)CC[C@H](N)C(=O)O

For `C[C@@H](NCCCc1cccc(C(F)(F)F)c1)c1cccc2ccccc12` [cinacalcet, (R)-N-(3-(3-(trifluoromethyl)phenyl)propyl)-1-(1-naphthyl)ethylamine, reference compound], the “promotion of secretion of CCK” value in test [1] was “functioned to promote the secretion of CCK”. In test [2], the “promotion of secretion of GLP-1” value is given as “functioned to promote the secretion of GLP-1”.
As for `N[C@@H](CCC(=O)N[C@@H](CS)C(=O)NCC(=O)O)C(=O)O` [γ-Glu-Cys-Gly], the “promotion of secretion of CCK” value in test [1] is reported as “functioned to promote the secretion of CCK”. Moreover, the “promotion of secretion of GLP-1” value in test [2] is on record as “functioned to promote the secretion of GLP-1”. For the same molecule, the calcium receptor activation result in the test on calcium receptor is listed as “is a calcium receptor activator”.
Consider Asp-Gly, for which, in the test on calcium receptor, the calcium receptor activation entry is given as “activate a calcium receptor”.
As to Cys-Gly, the calcium receptor activation entry in the test on calcium receptor is on record as “activate a calcium receptor”.
Cys-Met: the calcium receptor activation entry in the test with calcium receptor is reported as “activate a calcium receptor”.
Take Glu-Cys: in the test on calcium receptor, the calcium receptor activation entry was “activate a calcium receptor”.
For the molecule Gly-Cys, in the test with calcium receptor, the calcium receptor activation entry is “activate a calcium receptor”.
On to Leu-Asp, for which, in the test with calcium receptor, the calcium receptor activation result is reported as “activate a calcium receptor”.
For the molecule [γGlu]-Ala, the calcium receptor activation result in the test on calcium receptor was “activate a calcium receptor”.
Turning to [γGlu]-Cys, the “promotion of secretion of GLP-1” value in test [2] is listed as “functioned to promote the secretion of GLP-1”. Besides, in the test on male SD rats [3], the “plasma GLP-1 concentration” value was “significantly higher elevation of plasma GLP-1 concentration”. In addition, the blood glucose concentration result with male SD rats [4] is listed as “significantly lower blood glucose concentration value”. In addition, the calcium receptor activation result in the test with calcium receptor is given as “activate a calcium receptor”.
As for [γGlu]-Gly, the calcium receptor activation entry in the test on calcium receptor is recorded as “activate a calcium receptor”.
Take [γGlu]-Ile: the calcium receptor activation result in the test on calcium receptor was “activate a calcium receptor”.
In the case of [γGlu]-Leu, the calcium receptor activation entry with calcium receptor was “activate a calcium receptor”.
Take [γGlu]-Met: the calcium receptor activation result with calcium receptor is “activate a calcium receptor”.
With [γGlu]-Ser, the calcium receptor activation entry in the test with calcium receptor is “activate a calcium receptor”.
As to [γGlu]-Thr, in the test on calcium receptor, the calcium receptor activation result is “activate a calcium receptor”.
In the case of [γGlu]-Val, the calcium receptor activation result in the test with calcium receptor is “activate a calcium receptor”.
[γGlu]-Val-Gly: in test [1], the “promotion of secretion of CCK” value is “functioned to promote the secretion of CCK”.
Regarding [γGlu]-Val-NH2, in the test on calcium receptor, the calcium receptor activation entry was “activate a calcium receptor”.
On to [γGlu]-[Met(O)], for which, in the test with calcium receptor, the calcium receptor activation result is listed as “activate a calcium receptor”.
Consider [γGlu]-[γGlu]-Val, for which the calcium receptor activation entry in the test on calcium receptor is on record as “activate a calcium receptor”.
As to protamine, the “promotion of secretion of GLP-1” value in test [2] was “functioned to promote the secretion of GLP-1”.
With γ-Glu-Cys(S-Me), the calcium receptor activation entry with calcium receptor is “activate a calcium receptor”.
As for γ-Glu-Cys(S-Me)(O), the calcium receptor activation result in the test on calcium receptor is “activate a calcium receptor”.
Regarding γ-Glu-Orn, the calcium receptor activation entry in the test with calcium receptor is on record as “activate a calcium receptor”.
Regarding γ-Glu-Tau, in the test on calcium receptor, the calcium receptor activation result is “activate a calcium receptor”.
In the case of γ-Glu-Val-ol, in the test with calcium receptor, the calcium receptor activation result is “activate a calcium receptor”.
Consider γ-Glu-t-Leu, for which the calcium receptor activation result in the test on calcium receptor was “activate a calcium receptor”.

These data come from patent US20110046046A1, “PROPHYLACTIC OR THERAPEUTIC COMPOSITION FOR DIABETES OR OBESITY” (priority 2008, published 2011).
